pKi: −log10 of the molar value.
Legend:
Assay type in all cases: biochemical
[1] = molecular target: T1, JAK2 (Homo sapiens, UniProt O60674); assay: JAK2 inhibition (Table 4); conditions: read-out: JAK2 Ki
T1 construct: made in house; host or cells: SF9 insect cells (baculovirus)

[2] = molecular target: T2, TYK2 (Homo sapiens, UniProt P29597); assay: TYK2 inhibition (Table 4)
T2 construct: made in house; host or cells: SF9 insect cells (baculovirus)
T2 sequence (P29597 873-1187): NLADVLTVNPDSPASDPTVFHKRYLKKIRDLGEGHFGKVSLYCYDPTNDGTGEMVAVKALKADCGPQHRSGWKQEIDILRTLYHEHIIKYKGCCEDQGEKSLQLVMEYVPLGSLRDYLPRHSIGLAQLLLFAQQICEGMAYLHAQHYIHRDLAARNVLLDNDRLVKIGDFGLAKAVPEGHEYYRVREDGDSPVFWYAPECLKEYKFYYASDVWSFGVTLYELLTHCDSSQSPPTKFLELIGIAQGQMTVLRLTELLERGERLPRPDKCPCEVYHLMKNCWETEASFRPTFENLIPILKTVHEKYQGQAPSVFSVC

[3] = molecular target: T3, JAK1 (Homo sapiens, UniProt P23458); assay: JAK1 inhibition (Table 4); conditions: read-out: JAK1 Ki
T3 construct: made in house; host or cells: SF9 insect cells (baculovirus)
T3 sequence (P23458 852-1154): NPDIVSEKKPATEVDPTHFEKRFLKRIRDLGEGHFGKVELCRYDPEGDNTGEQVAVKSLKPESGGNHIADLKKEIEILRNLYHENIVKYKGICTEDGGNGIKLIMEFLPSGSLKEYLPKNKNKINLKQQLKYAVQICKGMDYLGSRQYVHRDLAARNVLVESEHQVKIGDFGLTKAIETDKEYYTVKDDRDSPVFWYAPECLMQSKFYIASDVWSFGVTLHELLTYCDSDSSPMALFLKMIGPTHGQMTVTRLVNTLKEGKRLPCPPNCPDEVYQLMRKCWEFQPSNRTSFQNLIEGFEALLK

[4] = molecular target: T4, JAK3 (Homo sapiens, UniProt P52333); assay: JAK3 inhibition (Table 4); conditions: read-out: JAK3 Ki
T4 construct: made in house; host or cells: SF9 insect cells (baculovirus)
T4 sequence (P52333 783-1124): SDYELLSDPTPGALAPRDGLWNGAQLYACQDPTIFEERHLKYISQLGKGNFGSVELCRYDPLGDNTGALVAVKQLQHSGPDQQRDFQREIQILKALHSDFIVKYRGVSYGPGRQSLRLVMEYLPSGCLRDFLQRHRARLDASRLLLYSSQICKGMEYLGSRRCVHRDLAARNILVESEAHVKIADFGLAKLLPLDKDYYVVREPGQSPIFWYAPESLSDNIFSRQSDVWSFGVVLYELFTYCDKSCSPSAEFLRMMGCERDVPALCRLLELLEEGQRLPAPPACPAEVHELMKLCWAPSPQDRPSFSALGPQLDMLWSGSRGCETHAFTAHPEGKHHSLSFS

T1 sequence (O60674 812-1132): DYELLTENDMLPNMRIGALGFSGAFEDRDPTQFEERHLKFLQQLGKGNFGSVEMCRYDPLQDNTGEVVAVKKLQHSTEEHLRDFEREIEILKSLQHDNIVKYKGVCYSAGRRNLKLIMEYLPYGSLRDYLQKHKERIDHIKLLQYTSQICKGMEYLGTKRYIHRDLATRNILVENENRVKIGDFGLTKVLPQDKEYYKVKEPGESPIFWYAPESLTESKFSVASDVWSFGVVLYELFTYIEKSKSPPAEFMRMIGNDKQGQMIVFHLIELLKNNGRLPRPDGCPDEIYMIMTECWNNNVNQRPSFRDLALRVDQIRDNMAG

Row | SMILES | pKi [1] | pKi [2] | pKi [3] | pKi [4]
1 | Cc1noc(CN2CC[C@H](n3c([C@@H](C)O)nc4cnc5[nH]ccc5c43)C2)n1 [Example 935, (R)-1-{1-[(S)-1-(3-Methyl-[1,2,4]oxadiazol-5-ylmethyl)-pyrrolidin-3-yl]-1,6-dihydro-1,3,5,6-tetraaza-as-indacen-2-yl}-ethanol] | 5.98 | 6.27 | 7.18 | 6.40
2 | Fc1cncc(CN2CCC(n3cnc4cnc5[nH]ccc5c43)CC2)c1 [Example 303, 1-[1-(5-Fluoro-pyridin-3-ylmethyl)-piperidin-4-yl]-1,6-dihydro-1,3,5,6-tetraaza-as-indacene] | 8.45 | 7.21 | 8.68 | 7.84
3 | CN(C(=O)Cc1nc2cnc3[nH]ccc3c2n1C1CCN(Cc2ccccc2)CC1)C1CCCC1 [Example 101, 2-[1-(1-Benzyl-piperidin-4-yl)-1,6-dihydro-1,3,5,6-tetraaza-as-indacen-2-yl]-N-cyclopentyl-N-methyl-acetamide] | 6.71 | 5.49 | 7.39 | 7.56
4 | NC(=O)Cc1nc2cnc3[nH]ccc3c2n1C1CCNCC1 [Example 260, 2-(1-Piperidin-4-yl-1,6-dihydro-1,3,5,6-tetraaza-as-indacen-2-yl)-acetamide] | 6.07 | 6.10 | 7.38 | 6.52
5 | C[C@@H](O)c1nc2cnc3[nH]ccc3c2n1C1CCOCC1 [Example 881, (R)-1-[1-(Tetrahydro-pyran-4-yl)-1,6-dihydro-1,3,5,6-tetraaza-as-indacen-2-yl]-ethanol] | 6.55 | 7.22 | 7.58 | 7.04
6 | Cc1nc2cnc3[nH]ccc3c2n1C(C)C1CCCO1 (single isomer, unassigned) [Example 426, 2-Methyl-1-[1-(tetrahydro-furan-2-yl)-ethyl]-1,6-dihydro-1,3,5,6-tetraaza-as-indacene] | 7.25 | 6.48 | 7.22 | 7.58
7 | O=C(Cc1nc2cnc3[nH]ccc3c2n1C1CCN(Cc2ccccc2)CC1)N1CC(F)(F)C1 [Example 259, 2-[1-(1-Benzyl-piperidin-4-yl)-1,6-dihydro-1,3,5,6-tetraaza-as-indacen-2-yl)-1-(3,3-difluoro-azetidin-1-yl)-ethanone] | 7.02 | 5.73 | 7.56 | 7.93
8 | CC1(n2nnc3cnc4[nH]ccc4c32)CCN(CCC#N)CC1 [Example 582, 3-[4-Methyl-4-(6H-1,2,3,5,6-pentaaza-as-indacen-1-yl)-piperidin-1-yl]-propionitrile] | 6.44 | 5.98 | 6.99 | 6.23
9 | CS(=O)(=O)NCc1nc2cnc3[nH]ccc3c2n1C1CCNCC1(F)F (racemic) [Example 945, N-[1-(3,3-Difluoro-piperidin-4-yl)-1,6-dihydro-1,3,5,6-tetraaza-as-indacen-2-ylmethyl]-methanesulfonamide] | 7.46 | 7.49 | 8.50 | 7.69
10 | COC(=O)N[C@@H]1CC[C@@H](n2c(C)nc3cnc4[nH]ccc4c32)C1 [Example 735, [(1R,3R)-3-(2-Methyl-6H-1,3,5,6-tetraaza-as-indacen-1-yl)-cyclopentyl]-carbamic acid methyl ester] | 8.25 | 7.72 | 8.82 | 7.26
11 | CC(O)c1nc2cnc3[nH]ccc3c2n1C1CCN(CC(F)(F)F)CC1 (racemic) [Example 355, 1-{1-[1-(2,2,2-Trifluoro-ethyl)-piperidin-4-yl]-1,6-dihydro-1,3,5,6-tetraaza-as-indacen-2-yl}-ethanol] | 7.35 | 7.46 | 8.42 | 7.38
12 | CC(=O)N(C)CCc1nc2cnc3[nH]ccc3c2n1C1CCCCC1 [Example 802, N-[2-(1-Cyclohexyl-1,6-dihydro-1,3,5,6-tetraaza-as-indacen-2-yl)-ethyl]-N-methyl-acetamide] | 7.31 | 7.26 | 8.11 | 7.10

Source: patent publication US8461328B2, “Tricyclic heterocyclic compounds, compositions and methods of use thereof” (Genentech, Inc., priority 2010, dated 2013)
